Data as given in the NIST ThermoML archive (doi:10.1016/j.jct.2019.02.020).

Experiment: mn = molality of the nth substance listed, in mol/kg
Conditions: 100 kPa, Liquid; for viscosity: Falling or rolling sphere viscometry; for mass density: Vibrating tube method

O=S(=O)([O-])[O-].[O]=[V+2] [oxovanadium(IV) sulfate] + O
Conditions | mass density, 293.15 K [kg/m3] | mass density, 303.15 K [kg/m3] | viscosity, 283.15 K [mPa·s] | viscosity, 288.15 K [mPa·s] | viscosity, 293.15 K [mPa·s] | viscosity, 298.15 K [mPa·s] | viscosity, 303.15 K [mPa·s] | viscosity, 308.15 K [mPa·s] | viscosity, 313.15 K [mPa·s] | viscosity, 318.15 K [mPa·s]
m1 = 0.2501 | 1034.67 | 1031.66 | 1.551 | 1.347 | 1.183 | 1.049 | 0.9378 | 0.8442 | 0.764 | 0.6958
m1 = 0.5 | 1069.8 | 1066.39 | 1.861 | 1.61 | 1.409 | 1.244 | 1.108 | 0.9929 | 0.897 | 0.8143
m1 = 0.7507 | 1104.11 | 1100.34 | 2.242 | 1.932 | 1.682 | 1.479 | 1.311 | 1.171 | 1.053 | 0.9528
m1 = 0.9964 | 1136.2 | 1132.1 | 2.697 | 2.312 | 2.005 | 1.755 | 1.55 | 1.379 | 1.235 | 1.113
m1 = 1.25 | 1169.5 | 1165.09 | 3.308 | 2.816 | 2.429 | 2.115 | 1.859 | 1.646 | 1.468 | 1.319
m1 = 1.5 | 1201.04 | 1196.42 | 4.052 | 3.427 | 2.936 | 2.543 | 2.223 | 1.959 | 1.74 | 1.556
m1 = 1.75 | 1231.58 | 1226.74 | 4.966 | 4.171 | 3.548 | 3.052 | 2.66 | 2.334 | 2.064 | 1.838
m1 = 2 | 1261.16 | 1256.15 | 6.108 | 5.092 | 4.304 | 3.679 | 3.18 | 2.783 | 2.445 | 2.168
m1 = 2.249 | 1289.97 | 1284.81 | 7.543 | 6.238 | 5.238 | 4.448 | 3.824 | 3.32 | 2.916 | 2.575
m1 = 2.499 | 1317.94 | 1312.66 | 9.273 | 7.615 | 6.348 | 5.359 | 4.58 | 3.953 | 3.446 | 3.029
m1 = 2.75 | 1345.06 | 1339.67 | 11.55 | 9.405 | 7.784 | 6.524 | 5.544 | 4.758 | 4.126 | 3.608
